Article PMC10388794 (Journal of Enzyme Inhibition and Medicinal Chemistry, 2023)

What was measured:
[1] = test system: Aβ1–42-induced cognitive impairment in mice; test: Morris water maze in Aβ1–42-induced cognitive impairment model; format: in vivo; conditions: T14-A24 10 mg/kg po, donepezil 15 mg/kg po
[2] = target: recombinant human AChE (hAChE) (Homo sapiens, UniProt P22303); test: hAChE inhibition assay; format: biochemical; conditions: read-out: hAChE inhibition rate % at 20 µM
Sequence of recombinant human AChE (hAChE) (P22303 32-614): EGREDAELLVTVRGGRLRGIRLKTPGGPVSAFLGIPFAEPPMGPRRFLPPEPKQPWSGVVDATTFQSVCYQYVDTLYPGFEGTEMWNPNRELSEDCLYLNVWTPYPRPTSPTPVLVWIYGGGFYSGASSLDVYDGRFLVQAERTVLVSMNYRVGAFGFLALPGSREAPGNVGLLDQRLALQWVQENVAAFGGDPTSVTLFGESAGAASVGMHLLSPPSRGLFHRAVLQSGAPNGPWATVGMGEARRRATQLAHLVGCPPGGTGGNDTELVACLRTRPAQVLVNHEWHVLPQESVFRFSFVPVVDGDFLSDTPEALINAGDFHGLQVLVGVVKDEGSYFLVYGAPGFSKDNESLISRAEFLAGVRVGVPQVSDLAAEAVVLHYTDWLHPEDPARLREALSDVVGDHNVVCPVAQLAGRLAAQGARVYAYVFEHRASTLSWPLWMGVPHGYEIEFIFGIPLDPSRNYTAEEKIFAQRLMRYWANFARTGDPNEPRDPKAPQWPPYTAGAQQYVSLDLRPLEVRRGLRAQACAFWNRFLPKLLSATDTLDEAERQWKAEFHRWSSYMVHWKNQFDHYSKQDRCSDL

In the case of `COc1cc2c(cc1OC)C(=O)C(CC1CCN(Cc3ccccc3)CC1)C2` (centres unmarked) [Donepezil], the “Aβ1–42-induced cognitive dysfunction (Morris water maze)” value [1] is reported as “significantly improved”.

For `CCN(C)C(=O)Oc1cccc([C@H](C)N(C)C)c1` [Rivastigmine], the inhibition at 20 µM [2] was 16.5 ± 0.8%.
